Measured values reported in patent US11746100B2 (GLOBAL BLOOD THERAPEUTICS, INC., priority 2020, dated 2023).

These compounds were tested against T1, human ferroportin (Homo sapiens, UniProt Q9NP59) (assay: Biological in-vitro ferroportin internalization assay (luciferase reporter)). Settings: average pEC50; stably-transfected CHO cell line expressing human ferroportin tagged to a luciferase reporter; 6 h incubation with test compound.
T1 construct: luciferase reporter (read with the Nano-Glo Luciferase Assay System); expressed in transfected cells; host or cells: CHO cells, stably transfected, expression induced with doxycycline
T1 sequence (Q9NP59 1-571): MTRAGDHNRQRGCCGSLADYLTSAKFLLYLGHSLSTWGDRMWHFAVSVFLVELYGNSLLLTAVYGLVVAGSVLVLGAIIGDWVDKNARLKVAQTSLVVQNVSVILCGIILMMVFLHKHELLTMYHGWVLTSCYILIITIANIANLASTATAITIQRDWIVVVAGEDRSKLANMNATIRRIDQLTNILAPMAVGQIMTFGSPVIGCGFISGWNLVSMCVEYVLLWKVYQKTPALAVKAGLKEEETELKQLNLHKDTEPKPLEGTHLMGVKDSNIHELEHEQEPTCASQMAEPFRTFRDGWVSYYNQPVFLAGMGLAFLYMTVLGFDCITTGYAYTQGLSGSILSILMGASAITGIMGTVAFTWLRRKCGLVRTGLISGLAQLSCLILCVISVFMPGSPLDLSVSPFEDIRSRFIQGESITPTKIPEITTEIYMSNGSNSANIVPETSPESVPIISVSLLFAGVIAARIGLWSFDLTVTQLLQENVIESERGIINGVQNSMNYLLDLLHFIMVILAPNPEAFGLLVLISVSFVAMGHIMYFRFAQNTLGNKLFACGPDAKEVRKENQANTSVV
Type: cell-based
Procedure, shortened: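 Read-out is Nano-Glo luciferase signal after 6 h compound exposure, with average pEC50 derived. Cells are a stable CHO line carrying luciferase-tagged human ferroportin, pre-loaded 24 h with ferric ammonium citrate and doxycycline-induced for 24 h.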

pEC50	SMILES
8.2	CN(CC(=O)NC(C)(C)C)c1nc(-c2cc(O[C@@H]3CCN(CCF)C3)ccn2)nc2c1CCC2 [Compound 497, N-tert-butyl-2-{[2-(4-{[(3R)-1-(2-fluoroethyl)pyrrolidin-3-yl]oxy}pyridin-2-yl)-5H,6H,7H-cyclopenta[d]pyrimidin-4-yl](methyl)amino}acetamide]
7.5	CSc1ccnc(-c2nc3c(c(N(C)CC(=O)NC(C)(C)C)n2)CCC3)c1 [Compound 498, N-tert-butyl-2-[methyl({2-[4-(methylsulfanyl)pyridin-2-yl]-5H,6H,7H-cyclopenta[d]pyrimidin-4-yl})amino]acetamide]
7.3	CN(C)CCOc1ccnc(-c2nc3c(c(N(C)CC(=O)NC4CC4)n2)CCC3)c1 [Compound 500, N-cyclopropyl-2-[(2-{4-[2-(dimethylamino)ethoxy]pyridin-2-yl}-5H,6H,7H-cyclopenta[d]pyrimidin-4-yl)(methyl)amino]acetamide]
8.2	C[C@H]1C[C@@H](Oc2ccnc(-c3nc4c(c(N(C)CC(=O)NC(C)(C)C)n3)CCC4)c2)CN1C [Compound 502, N-tert-butyl-2-{[2-(4-{[(3R,5S)-1,5-dimethylpyrrolidin-3-yl]oxy}pyridin-2-yl)-5H,6H,7H-cyclopenta[d]pyrimidin-4-yl](methyl)amino}acetamide]
8.8	CC(C)NC(=O)CN(C)c1nc(-c2cc(OCCN3CCSCC3)ccn2)nc2c1CCC2 [Compound 505, 2-[methyl(2-{4-[2-(thiomorpholin-4-yl)ethoxy]pyridin-2-yl}-5H,6H,7H-cyclopenta[d]pyrimidin-4-yl)amino]-N-(propan-2-yl)acetamide]
8.0	CSCCOc1ccnc(-c2nc3c(c(N(C)CC(=O)NC(C)(C)C)n2)CCC3)c1 [Compound 506, N-tert-butyl-2-[methyl(2-{4-[2-(methylsulfanyl)ethoxy]pyridin-2-yl}-5H,6H,7H-cyclopenta[d]pyrimidin-4-yl)amino]acetamide]

More lines, now with the values behind:

SMILES	pEC50
CCN1CC[C@@H](Oc2ccnc(-c3nc4c(c(N(C)CC(=O)NC(C)(C)C)n3)CCC4)c2)C1 [Compound 496, N-tert-butyl-2-{[2-(4-{[(3R)-1-ethylpyrrolidin-3-yl]oxy}pyridin-2-yl)-5H,6H,7H-cyclopenta[d]pyrimidin-4-yl](methyl)amino}acetamide]	8.0
CN(C)CCSc1ccnc(-c2nc3c(c(N(C)CC(=O)NC(C)(C)C)n2)CCC3)c1 [Compound 499, N-tert-butyl-2-{[2-(4-{[2-(dimethylamino)ethyl]sulfanyl}pyridin-2-yl)-5H,6H,7H-cyclopenta[d]pyrimidin-4-yl](methyl)amino}acetamide]	8.2
CN(CC(=O)NC(C)(C)C)c1nc(-c2cc(OCC(C)(C)O)ccn2)nc2c1CCC2=O [Compound 501, N-tert-butyl-2-({2-[4-(2-hydroxy-2-methylpropoxy)pyridin-2-yl]-7-oxo-5H,6H,7H-cyclopenta[d]pyrimidin-4-yl}(methyl)amino)acetamide]	6.4
C[C@H](C(=O)NC(C)(C)C)N(C)c1nc(-c2cc(O[C@@H]3CCN(C)C3)ccn2)nc2c1CCC2 [Compound 503, (2R)—N-tert-butyl-2-{methyl[2-(4-{[(3R)-1-methylpyrrolidin-3-yl]oxy}pyridin-2-yl)-5H,6H,7H-cyclopenta[d]pyrimidin-4-yl]amino}propanamide]	8.5
CC(C)NC(=O)[C@@H](C)N(C)c1nc(-c2cc(O[C@@H]3CCN(C)C3)ccn2)nc2c1CCC2 [Compound 504, (2R)-2-{methyl[2-(4-{[(3R)-1-methylpyrrolidin-3-yl]oxy}pyridin-2-yl)-5H,6H,7H-cyclopenta[d]pyrimidin-4-yl]amino}-N-(propan-2-yl)propanamide]	7.9
CN(CC(=O)NC(C)(C)C)c1nc(-c2cc(OCCS(C)(=O)=O)ccn2)nc2c1CCC2 [Compound 507, N-tert-butyl-2-({2-[4-(2-methanesulfonylethoxy)pyridin-2-yl]-5H,6H,7H-cyclopenta[d]pyrimidin-4-yl}(methyl)amino)acetamide]	7.9
[2H]C([2H])([2H])N(CCOc1ccnc(-c2nc3c(c(N(C)CC(=O)NC(C)(C)C)n2)CCC3)c1)C([2H])([2H])[2H] [Compound 508, N-tert-butyl-2-{[2-(4-{2-[di(2H3)methylamino]ethoxy}pyridin-2-yl)-5H,6H,7H-cyclopenta[d]pyrimidin-4-yl](methyl)amino}acetamide]	7.6
[2H]C([2H])([2H])N(CC(=O)NC(C)(C)C)c1nc(-c2cc(OCC(C)(C)O)ccn2)nc2c1CCC2 [Compound 509, N-tert-butyl-2-({2-[4-(2-hydroxy-2-methylpropoxy)pyridin-2-yl]-5H,6H,7H-cyclopenta[d]pyrimidin-4-yl}((2H3)methyl)amino)acetamide]	8.2
